Data reported in patent US20240335462A1, “SULFUR/PHOSPHORUS-CONTAINING ARYL COMPOUND AND APPLICATION THEREOF” (MEDSHINE DISCOVERY INC., priority 2021, published 2024).

Columns and labels:
[1] = system: acute colitis induced by CD40 antibody; experiment: Mouse model of acute colitis induced by CD40 antibody; format: in vivo, CB-17 SCID mice; design: DAI score: scale not given here; conditions: mean
Description: The purpose of this experiment was to evaluate the alleviating effect of the compound on colitis in a mouse model induced by CD40 antibody.
CB-17 SCID mice were randomly divided into groups. Each group consisted of 6 mice, which received an intraperitoneal injection (IP) of CD40 antibody (80 μg per mouse) on Day 0. The positive control drug IL-12 P40 antibody and the test compound were administered from Day-1 to Day 4, with Day 5 being the endpoint of the experiment. The positive control drug IL-12 P40 antibody was administered via intraperitoneal injection (IP) once every three days; the test compound was administered by gavage (PO) twice a day (BID).
The compounds were all prepared into a clear solution with 10% DMSO+10% solutol+80% (10% HP-3-CD) as a solvent for PO (oral gavage) administration. Administration volume parameters: 10 mL/kg based on the body weight of the mice.
IL-12 P40 antibody and the test compound were administered from Day-1 to Day 4. On Day 0, 30 minutes after administration, 200 μL of CD40 antibody (4 mg/kg) was intraperitoneally injected, while mice in the blank control group were intraperitoneally injected with 200 μL of DPBS. Body weight was recorded and feces were scored during the experiment.
Fecal scoring involved placing each mouse individually in a specially designed cage for about 10 minutes for scoring. The fecal scoring criteria were as per Table 27.
If blood is observed in the feces or around the anus, occult blood testing is not conducted. For the remaining mice without visible bloody stools, feces are collected for occult blood testing. Occult blood scoring is based on the assumption that the daily test results for the mice in the Normal group are 0. Each day, the fecal samples of four mice from the blank control group are observed for the time taken to develop color on the occult blood test strips. The shortest time required for color development in the feces of these four mice is set as the daily threshold. If the feces develop color before this time point and the color intensifies within 1 to 2 minutes, a score of 2 is assigned.
The body weight and Disease Activity Index (DAI) scores of the animals were recorded daily to assess the disease progression in each group and the effect of the test compound on the disease. The daily Disease Activity Index (DAI) score consists of three parts, with specific criteria referenced in Table 27.

[2] = system: IL-12/IL-18-induced IFN-γ secretion by mouse immune cells; experiment: IL-12/IL-18-induced IFN-γ secretion in mice (serum ELISA); format: in vivo, C57BL/6J mice
Description: The purpose of this experiment was to evaluate the inhibitory effect of the compound on IL-12/IL-18-induced IFN-γ secretion by immune cells in mice. The IFN-γ protein level in serum samples of mice treated with the compound was detected using the enzyme-linked immunosorbent assay (ELISA) method.
This experiment was conducted twice.
The compounds were all prepared into a clear solution with 10% DMSO+10% solutol+80% (10% HP-β-CD) as a solvent for PO (oral gavage) administration. The frequency of administration was once daily (QD).
• a) According to the grouping, the mice were administered by gavage (P0) with either the compound formulation or solvent control. • b) One hour later, each mouse received an intraperitoneal injection of IL-12 (0.01 μg per mouse) or PBS buffer. • c) One hour after IL-12 administration, each mouse received an intraperitoneal injection of IL-18 (1 μg per mouse) or PBS buffer. • d) Blood was collected three hours after IL-18 administration, and serum was separated.
• a) Prior to use, all reagents were mixed thoroughly to avoid foaming. • b) The number of strips required was determined based on the number of experimental wells (blanks and standards). Duplicate tests were performed for samples (including standards) and blanks. • c) Sample addition: 100 μL/well of the diluted Cytokine standard was added to the standard wells, 100 μL/well of the sample was added to the sample wells, and 100 μL/well of Dilution buffer R (1×) was added to the blank control wells. • d) Detection antibody addition: 50 μL/well of Biotinylated antibody working solution was added. After mixing, the plate was covered with a sealing film and incubated at 37° C. for 90 minutes. • e) Plate washing: The liquid was discarded from the wells, then 300 μL/well of 1× Washing buffer working solution was added, and allowed to stand for 1 minute before the liquid was discarded from the wells. […]
The plate was covered with a sealing film and incubated at 37° C. for 30 minutes. • g) Plate washing: Step 5 was repeated. • h) Color development: 100 μL/well of TMB was added, then the plate was incubated at 37° C. in the dark for 5 to 30 minutes, and the reaction was terminated depending on the intensity of the color (dark blue) in the well. […] Dual wavelengths were recommended for reading the plate, specifically measuring at a measurement wavelength of 450 nm and a reference wavelength of 610 to 630 nm simultaneously.
The expression level of each sample was calculated based on the standard curve, and statistical analysis of the results for each group was performed, including mean and standard error of the mean (SEM). […] All data were analyzed using GraphPad Prism 6.02.

[3] = single PO administration 3 mg/kg
[4] = single PO administration 10 mg/kg

SMILES	DAI score ([1]; 50 mg/kg PO BID, Day 0)	Weight change rate (%) ([1]; 50 mg/kg PO BID, Day 0)	DAI score ([1]; 50 mg/kg PO BID, Day 1)	Weight change rate (%) ([1]; 50 mg/kg PO BID, Day 1)	DAI score ([1]; 50 mg/kg PO BID, Day 2)	Weight change rate (%) ([1]; 50 mg/kg PO BID, Day 2)	DAI score ([1]; 50 mg/kg PO BID, Day 3)	Weight change rate (%) ([1]; 50 mg/kg PO BID, Day 3)	DAI score ([1]; 50 mg/kg PO BID, Day 4)	Weight change rate (%) ([1]; 50 mg/kg PO BID, Day 4)	DAI score ([1]; 50 mg/kg PO BID, Day 5)	Weight change rate (%) ([1]; 50 mg/kg PO BID, Day 5)	DAI score ([1]; 50 mg/kg PO BID, Day -1)	Weight change rate (%) ([1]; 50 mg/kg PO BID, Day -1)	Serum IFN-γ inhibition rate (%) [2, 3] [%]	Serum IFN-γ inhibition rate (%) [2, 4] [%]	other results
CNC(=O)c1nnc(NC(=O)C2CC2)cc1Nc1cccc(-c2ncc(S(=N)(=O)C(C)C)cn2)c1OC.Cl (single isomer, unassigned) [Hydrochloride of WX-011A]	0.33	100.63	1.00	99.54	1.83	97.69	0.67	100.43	0.50	100.96	1.17	99.34	0.00	100.00	–	–	DAI score ([1]; 30 mg/kg PO BID, Day 0): 0.17; Weight change rate (%) ([1]; 30 mg/kg PO BID, Day 0): 100.60%; DAI score ([1]; 30 mg/kg PO BID, Day 1): 1.00; Weight change rate (%) ([1]; 30 mg/kg PO BID, Day 1): 100.01%; DAI score ([1]; 30 mg/kg PO BID, Day 2): 2.17; Weight change rate (%) ([1]; 30 mg/kg PO BID, Day 2): 95.93%; DAI score ([1]; 30 mg/kg PO BID, Day 3): 0.83; Weight change rate (%) ([1]; 30 mg/kg PO BID, Day 3): 98.85%; DAI score ([1]; 30 mg/kg PO BID, Day 4): 0.50; Weight change rate (%) ([1]; 30 mg/kg PO BID, Day 4): 99.69%; DAI score ([1]; 30 mg/kg PO BID, Day 5): 1.00; Weight change rate (%) ([1]; 30 mg/kg PO BID, Day 5): 97.07%; DAI score ([1]; 30 mg/kg PO BID, Day -1): 0.00; Weight change rate (%) ([1]; 30 mg/kg PO BID, Day -1): 100.00%
CNC(=O)c1nnc(NC(=O)C2CC2)cc1Nc1cccc(-c2ncc(S(=N)(=O)C(C)C)cn2)c1OC (single isomer, unassigned) [WX-011A]	–	–	–	–	–	–	–	–	–	–	–	–	–	–	64	96	–
CNC(=O)c1cnc(NC(=O)C2CC2)cc1Nc1cccc(-c2ccc(S(=O)(=O)C(C)C)cn2)c1OC.O=S(=O)(O)O [Sulfate of WX-020]	0.33	100.48	1.17	98.37	2.67	95.22	0.83	100.73	0.33	100.81	0.50	100.44	0.00	100.00	–	–	DAI score ([1]; 100 mg/kg PO BID, Day 0): 0.33; Weight change rate (%) ([1]; 100 mg/kg PO BID, Day 0): 100.78%; DAI score ([1]; 100 mg/kg PO BID, Day 1): 1.33; Weight change rate (%) ([1]; 100 mg/kg PO BID, Day 1): 99.88%; DAI score ([1]; 100 mg/kg PO BID, Day 2): 1.67; Weight change rate (%) ([1]; 100 mg/kg PO BID, Day 2): 97.14%; DAI score ([1]; 100 mg/kg PO BID, Day 3): 0.50; Weight change rate (%) ([1]; 100 mg/kg PO BID, Day 3): 99.65%; DAI score ([1]; 100 mg/kg PO BID, Day 4): 0.33; Weight change rate (%) ([1]; 100 mg/kg PO BID, Day 4): 101.16%; DAI score ([1]; 100 mg/kg PO BID, Day 5): 0.33; Weight change rate (%) ([1]; 100 mg/kg PO BID, Day 5): 100.90%; DAI score ([1]; 100 mg/kg PO BID, Day -1): 0.00; Weight change rate (%) ([1]; 100 mg/kg PO BID, Day -1): 100.00%
CNC(=O)c1cnc(NC(=O)C2CC2)cc1Nc1cccc(-c2ccc(S(=O)(=O)C(C)C)cn2)c1OC [WX-020]	–	–	–	–	–	–	–	–	–	–	–	–	–	–	40	86	–
